A word on the IC50: it is the concentration that inhibits the measured activity by half. In general, inhibition refers to the change of the read-out against control, counted positive when it falls.

We go through 13 compounds from US11147801B2, “Methods of use for trisubstituted benzotriazole derivatives as dihydroorotate oxygenase inhibitors” (Aurigene Discovery Technologies Limited, priority 2017, dated 2021).

One test has as its system L1210 murine leukemia. The following applies: cited from earlier work.
Test [1] deals with T1, DHODH (Homo sapiens (Human), UniProt Q02127). Put plainly: DHODH activity assay (coupled enzyme assay, DCIP reduction). The format is biochemical. The following applies: read-out: DHODH inhibition activity, IC50 group. As to the method:
The DHODH activity assay is a coupled enzyme assay in which oxidation of DHO and subsequent reduction of ubiquinone are stoichiometrically equivalent to the reduction of DCIP ([…]). The reduction of DCIP is accompanied by a loss of absorbance at 610 nm.
Buffer Preparation: 50 mM tris HCl, 150 mM KCl, and pH 8.0, 0.8% triton.
L-Dihydroorotic acid stock solution of 20 mM in buffer.
2, 6-Dichloroindophenol Sodium salt hydrate stock solution of 20 mM in buffer.
Decylubiquinone stock solution of 20 mM in buffer.
5 μL of Dimethyl sulfoxide or a compound of formula (I) in DMSO solution was added to the wells of a 96 well plate. Compounds of formula (I) were measured at 10 μM.
Protein along with buffer was added, so that the total volume including the DMSO was 87 μL. Compound and protein were incubated for half an hour at room temperature after mixing. 5 μL of 20 mM solution of L-Dihydroorotic acid, 5 μL of 2 mM solution of Decylubiquinone and 3 μL of 2 mM solution of 2, 6-Dichloroindophenol sodium salt hydrate were added to the above solution (total assay volume 100 μL). The mixture was stirred for 2 min and absorbance was recorded at every 10 min at 610 nanometers.
Percent inhibition is calculated as follows: […]
A 2 mM DMSO stock solution of the selected trisubstituted benzoimidazole and benzotriazole derivatives of formula (I) of the present invention to be examined was prepared. Subsequent ⅓rd dilutions were made.
5 μL of each stock of compound of formula (I) was used for each 100 μL assay. Therefore, 5 μL of the 2 mM stock provided 100 μL of 100 μM solution of compound of formula (I), when made up with buffer, protein and substrate. See also: Ulrich et al. (2001) Eur. J. Biochem.268, 1861-1868.
Target sequence in this assay (Q02127 whole entry): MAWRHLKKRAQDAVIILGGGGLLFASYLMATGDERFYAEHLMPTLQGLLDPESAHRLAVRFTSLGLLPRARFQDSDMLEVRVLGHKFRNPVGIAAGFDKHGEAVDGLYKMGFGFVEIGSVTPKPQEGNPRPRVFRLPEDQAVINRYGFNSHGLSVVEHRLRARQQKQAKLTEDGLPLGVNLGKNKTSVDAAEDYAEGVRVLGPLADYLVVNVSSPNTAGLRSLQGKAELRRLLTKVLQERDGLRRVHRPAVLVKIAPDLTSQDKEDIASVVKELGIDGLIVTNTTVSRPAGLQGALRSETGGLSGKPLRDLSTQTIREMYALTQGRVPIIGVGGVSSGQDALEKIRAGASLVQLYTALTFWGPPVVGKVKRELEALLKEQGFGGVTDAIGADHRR

The test system of the next test is Ramos cells. The test is described as follows: Ramos proliferation assay (XTT). Particulars: Homo sapiens, 72 hrs; for inhibition at 30 µM: read-out: Maximum % Inhibition at 30 μM; for IC50: XTT. The format is cell-based. The text has this: Cell proliferation assay is a sensitive method for quantification of viable cells in cytotoxicity or proliferation assay. The XTT (2,3-bis[2-Methoxy-4-nitro-5-sulfophenyl]-2 H-tetrazolium-5-carboxyanilide inner salt) system is a means of measuring the activity of living cells via mitochondrial dehydrogenases. Mitochondrial dehydrogenases of viable cells cleave the tetrazolium ring of XTT, yielding orange formazon crystals which are soluble in aqueous solutions. The XTT solution is potentiated by the addition of an electron coupling agent, phenazine methosulphate (PMS) to the reaction. The resulting orange colour is spectrophotometrically measured at 450 nm. An increase or decrease in cell numbers results in a concomitant change in the amount of formazon formed, indicating the degree of cytotoxicity caused by the test material.
Dissolve 17.7 g IMDM (Iscove's Modified Dulbecco's Medium) powder, 1.5 g sodium bicarbonate pH 7.2-7.4 in 1 L MiliQ water, add 1% Pencilin/ Streptomycin and 10% FBS.
Dissolve 10.6 g Ham's F12 powder, 1.5 g sodium bicarbonate pH 7.2-7.4 in 1 L MiliQ water, add 1% Penicillin/Streptomycin. DMSO used as vehicle.
Ramos cells were re-suspended to a density of 1×10^5 cells/ ml in complete IMDM medium. 95 μL of this cell suspension was added to the 96-well plate to seed ˜10,000 cells per well. The plates were incubated at 37° C. under a humidified atmosphere of 5% CO2 for ˜1 hour before compound addition.
Test compounds (Refer to Table 1) were dissolved in 100% DMSO to generate a 2/6/10/20 mM stock solution. A 200× concentration of the required final concentrations was prepared in DMSO. 10 μL of each concentration (200×) was then diluted in 90 μL of serum-free Ham's F12 medium to get an intermediate concentration of 20× in medium. The DMSO concentration in this step is 10% (Intermediate dilution). 5 μL of each intermediate dilution was then added in triplicates in the previously seeded 96-well plate. The final DMSO concentration was 0.5% in the experimental wells. Cells treated with 0.5% DMSO served as positive control. 100 μL, of complete IMDM medium served as media blank for data analysis. 200 μL, of 1× PBS was added in all corner wells of the assay plate. Plates were then incubated for 72 hrs in an incubator with 5% CO2 at 37° C.
On termination day, 100 μl of XTT solution (1 mg/ml XTT supplemented with 25 μM PMS in Ham's F12 medium) was added to each well. Plates were incubated for 2 hrs. The amount of formazon produced was determined by reading the absorbance of the plate using VICTOR X5 multilabel plate reader at wavelength of 450 nm. The IC50 values were determined as concentrations that reduced cell viability by 50% and the curve was plotted with GraphPad Prism 6.0.
Percent (%) Inhibition was calculated by normalizing DMSO control values to 100% using the formula: % Inhibition=[…](Abs450test compound−blank)/(Abs450positive control−blank)*100
Test compound contains cells, test compound, IMDM medium and 0.5% DMSO
Positive control contains cells, IMDM medium and 0.5% DMSO
Blank contains IMDM medium
(Tetrazolium assays rely on reduction of a dye to a coloured formazan, in cell work by metabolically active cells.)

Test [2] addresses T1, DHODH. The following applies: cited from earlier work.
Target sequence in this assay (Q02127 whole entry, species assumed): as the sequence (Q02127 whole entry) above

Take `Cc1c(-c2ccc(-c3ccccc3F)cc2)nc2ccc(F)cc2c1C(=O)O` [Brequinar, 6-Fluoro-2-(2′-fluoro[1,1′-biphenyl]-4-yl)-3-methyl-4-quinolinecarboxylic acid]: the Anticancer activity result in the test on L1210 murine leukemia is given as “exhibits an anticancer activity”.

As for `Cn1nnc2cc(-c3c(F)c(F)c(-c4ccccc4)c(F)c3F)cc(C(=O)O)c21` [Compound 19, 1-methyl-5-(2,3,5,6-tetrafluoro-[1,1′-biphenyl]-4-yl)-1H-benzo[d][1,2,3]triazole-7-carboxylic acid], the 50% inhibitory concentration (IC50) at DHODH [1] is < 100 nM. Besides, in the test on Ramos cells, the inhibition at 30 µM is 106% and the half-maximal inhibitory concentration (IC50) stood at 70 nM.

As to `Cc1ccccc1-c1ccc(-c2cc(C(N)=O)c3c(c2)nnn3C)cc1` [Compound 2, 1-methyl-5-(2′-methyl-[1,1′-biphenyl]-4-yl)-1H-benzo[d] [1,2,3]triazole-7-carboxamide], the IC50 on DHODH [1] is < 100 nM. In the test on Ramos cells, the inhibition at 30 µM is 95% and the 50% inhibitory concentration (IC50) amounted to 1090 nM.

Consider `CN1CCN(Cc2ccccc2-c2ccc(C3=CC4N=NN(C)C4C(C(=O)O)=C3)cc2)CC1` (centres unmarked) [Compound 29, 1-methyl-5-(2′-((4-methylpiperazin-1-yl)methyl)-[1,1′-biphenyl]-4-yl)-3a,7a-dihydro-1H-benzo[d][1,2,3]triazole-7-carboxylic acid], for which, at DHODH [1], the IC50 was in the range of 101 to 1000 nM. Further, in the test with Ramos cells, the inhibition at 30 µM was determined as 81% and the half-maximal inhibitory concentration (IC50) amounted to 8970 nM.

Take `Cc1ccccc1-c1ccc(-c2cc(C(N)=O)c3nn(C)nc3c2)cc1` [Compound 11, 2-methyl-6-(2′-methyl-[1,1′-biphenyl]-4-yl)-2H-benzo[d][1,2,3]triazole-4-carboxamide]: the IC50 at DHODH [1] lay in the range of 101 to 1000 nM. Besides, the inhibition at 10 µM in the test with Ramos cells (10 μM, read-out: Maximum % Inhibition (at 10 μM)) amounted to 67%.

`Cn1nc2cc(-c3ccc(-c4ccccc4CN4CCOCC4)cc3)cc(C(=O)O)c2n1` [Compound 26, 2-methyl-6-(2′-(morpholinomethyl)-[1,1′-biphenyl]-4-yl)-2H-benzo[d][1,2,3]triazole-4-carboxylic acid]: at DHODH [1], the IC50 was > 1000 nM. Further, in the test with Ramos cells, the inhibition at 30 µM amounted to 133% and the IC50 came to 4260 nM.

For the compound `Cn1nnc2cc(-c3ccc(-c4cccc(CN5CCCC5)c4)cc3)cc(C(=O)O)c21` [Compound 17, 1-methyl-5-(3′-(pyrrolidin-1-ylmethyl)-[1,1′-biphenyl]-4-yl)-1H-benzo[d][1,2,3]triazole-7-carboxylic acid], the concentration for half-maximal inhibition (IC50) on DHODH [1] is > 1000 nM. Further, the inhibition at 30 µM with Ramos cells amounted to 50%.

Consider `Cc1ccc(C)n1-c1ccc(-c2cc(C(=O)O)c3nn(C)nc3c2)cc1` [Compound 13, 6-(4-(2,5-dimethyl-1H-pyrrol-1-yl)phenyl)-2-methyl-2H-benzo[d][1,2,3]triazole-4-carboxylic acid], for which the half-inhibitory concentration (IC50) at DHODH [1] is 101 to 1000 nM; in the test on Ramos cells, 3880 nM. Moreover, the inhibition at 30 µM in the test with Ramos cells worked out at 100%.

As to `Cn1nnc2cc(-c3ccc(-c4ccccc4CN4CCCC4)cc3)cc(C(=O)O)c21` [Compound 27, 1-methyl-5-(2′-(pyrrolidin-1-ylmethyl)-[1,1′-biphenyl]-4-yl)-1H-benzo[d][1,2,3]triazole-7-carboxylic acid], the IC50 at DHODH [1] was > 1000 nM. Further, in the test on Ramos cells, the inhibition at 30 µM was 89% and the IC50 is 3050 nM.

For `Cn1nnc2cc(-c3ccc(-c4ccccc4CN4CCOCC4)cc3)cc(C(=O)O)c21` [Compound 25, 1-methyl-5-(2′-(morpholinomethyl)-[1,1′-biphenyl]-4-yl)-1H-benzo[d][1,2,3]triazole-7-carboxylic acid], on DHODH [1], the concentration for half-maximal inhibition (IC50) is 101 to 1000 nM. In addition, in the test on Ramos cells, the inhibition at 30 µM was 120% and the IC50 came to 2820 nM.

Take `CN1CCN(Cc2ccccc2-c2ccc(-c3cc(C(=O)O)c4nn(C)nc4c3)cc2)CC1` [Compound 30, 2-methyl-6-(2′-((4-methylpiperazin-1-yl)methyl)-[1,1′-biphenyl]-4-yl)-2H-benzo[d][1,2,3]triazole-4-carboxylic acid]: the IC50 on DHODH [1] was > 1000 nM. Moreover, in the test with Ramos cells, the inhibition at 30 µM came out at 56%.

Consider `Cn1nnc2cc(-c3ccc(-c4ccccc4)cc3)cc(C(=O)O)c21` [Compound 3, 5-([1,1′-biphenyl]-4-yl)-1-methyl-1H-benzo[d][1,2,3]triazole-7-carboxylic acid], for which the concentration for half-maximal inhibition (IC50) at DHODH [1] was in the range of 101 to 1000 nM. Besides, in the test on Ramos cells, the inhibition at 30 µM was determined as 113% and the concentration for half-maximal inhibition (IC50) was determined as 524 nM.

Turning to `C/C(O)=C(\C#N)C(=O)Nc1ccc(C(F)(F)F)cc1` [Teriflunomide], the “Fold greater inhibitor of DHODH than of protein tyrosine kinase” value at DHODH [2] was 100-1,000 fold.
